Test results: US20240041042A1, “1-(PYRIDYL)-5-AZINYLPYRAZOLE DERIVATIVES, AND THEIR USE FOR CONTROL OF UNDESIRED PLANT GROWTH” (Bayer Aktiengesellschaft, priority 2020, published 2024)
Like-named read-outs stand apart in the source and are kept apart here.

Tests used:
Type in all cases: in vivo
[1] = test system: Alopecurus myosuroides (ALOMY); experiment: Pre-emergence herbicidal action against ALOMY; conditions: scored visually after about 3 weeks, 100% = plants have died
In short: (§1)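 Greenhouse pot trial: seeds sown, soil-covered, sprayed before emergence with compound in water (0.5% additive; 600 l/ha; ≤320 g/ha). Scoring visual, ~3 weeks, 0–100% scale vs untreated.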

[2] = test system: Amaranthus retroflexus (AMARE); experiment: Pre-emergence herbicidal action against AMARE; conditions: visual scoring after about 3 weeks vs untreated controls
In short: as §1

[3] = test system: Avena fatua (AVEFA); experiment: Pre-emergence herbicidal action against AVEFA; conditions: 320 g/ha, visual scoring after about 3 weeks vs untreated controls
In short: as §1

[4] = test system: Digitaria sanguinalis (DIGSA); experiment: Pre-emergence herbicidal action against DIGSA
From the text: Seeds of monocotyledonous and dicotyledonous weed plants and crop plants are placed in plastic or organic planting pots and covered with soil. The compounds of the invention, formulated in the form of wettable powders (WP) or as emulsion concentrates (EC), are then applied to the surface of the covering soil as aqueous suspension or emulsion with addition of 0.5% additive at a water application rate equivalent to 600 l/ha. After the treatment, the pots are placed in a greenhouse and kept under good growth conditions for the trial plants. After about 3 weeks, the effect of the preparations is scored visually in comparison with untreated controls as percentages. For example, 100% activity=the plants have died, 0% activity=like control plants.
Tables A1 to A13 below show the effects of selected compounds of the general formula (I) on various harmful plants and at an application rate corresponding to 320 g/ha or lower, which were obtained by the experimental procedure mentioned above. The appendices “a”, “b” and “c” give differentiation by dosage used with otherwise the same harmful plants tested.

[5] = test system: Echinochloa crus-galli (ECHCG); experiment: Pre-emergence herbicidal action against ECHCG
In short: as §1

[6] = test system: Lolium rigidum (LOLRI); experiment: Pre-emergence herbicidal action against LOLRI
In short: as §1

[7] = test system: Matricaria inodora (MATIN); experiment: Pre-emergence herbicidal action against MATIN
In short: as §1

[8] = test system: Pharbitis purpurea (PHBPU); experiment: Pre-emergence herbicidal action against PHBPU
In short: as §1

[9] = test system: Polygonum convolvulus (POLCO); experiment: Pre-emergence herbicidal action against POLCO
In short: as §1

[10] = test system: Setaria viridis (SETVI); experiment: Pre-emergence herbicidal action against SETVI
In short: as §1

[11] = test system: Verconica persica (VERPE); experiment: Pre-emergence herbicidal action against VERPE
In short: as §1

[12] = test system: Viola tricolor (VIOTR); experiment: Pre-emergence herbicidal action against VIOTR
In short: as §1

[13] = test system: Abutilon theophrasti (ABUTH); experiment: Post-emergence herbicidal action against ABUTH; conditions: 80 g/ha, visual rating about 3 weeks after treatment vs untreated controls (100% = plants have died, 0% = like control plants)
In short: (§2)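 Post-emergence greenhouse spray, one-leaf stage, 600 l/ha water plus 0.5% additive; WP or EC formulations; application rates 320 g/ha or lower. Visual % damage vs untreated controls at ~3 weeks.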

[14] = test system: Alopecurus myosuroides (ALOMY); experiment: Post-emergence herbicidal action against ALOMY; conditions: 80 g/ha, visual rating about 3 weeks after treatment vs untreated controls (100% = plants have died, 0% = like control plants)
In short: as §2

[15] = test system: Amaranthus retroflexus (AMARE); experiment: Post-emergence herbicidal action against AMARE; conditions: 80 g/ha, visual rating about 3 weeks after treatment vs untreated controls (100% = plants have died, 0% = like control plants)
In short: as §2

[16] = test system: Avena fatua (AVEFA); experiment: Post-emergence herbicidal action against AVEFA; conditions: 80 g/ha, visual rating about 3 weeks after treatment
In short: as §2

[17] = test system: Digitaria sanguinalis (DIGSA); experiment: Post-emergence herbicidal action against DIGSA; conditions: visual rating about 3 weeks after treatment
In short: as §2

[18] = test system: Pharbitis purpurea (PHBPU); experiment: Post-emergence herbicidal action against PHBPU
In short: as §2

[19] = test system: Polygonum convolvulus (POLCO); experiment: Post-emergence herbicidal action against POLCO; conditions: dosage 80 g/ha
In short: as §2

[20] = test system: Verconica persica (VERPE); experiment: Post-emergence herbicidal action against VERPE
In short: as §2

[21] = test system: Viola tricolor (VIOTR); experiment: Post-emergence herbicidal action against VIOTR
In short: as §2

[22] = test system: Oryza sativa (ORYSA); conditions: crop plant compatibility
In short: (§3)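 One-leaf-stage crops (2–3 wk post-sowing, sandy loam, greenhouse) sprayed on green parts; 0.5% additive, 600 l/ha water. Rated by eye ~3 wk later, % vs untreated; suffixes a/b/c mark different dosages.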

[23] = test system: Zea mays (ZEAMX)
In short: as §3

[24] = test system: Echinochloa crus-galli (ECHCG); experiment: Post-emergence herbicidal action against ECHCG
In short: as §2

[25] = test system: Matricaria inodora (MATIN); experiment: Post-emergence herbicidal action against MATIN
In short: as §2

[26] = test system: Setaria viridis (SETVI); experiment: Post-emergence herbicidal action against SETVI; conditions: dosage 320 g/ha
In short: as §2

[27] = 80 g/ha, visual scoring after about 3 weeks vs untreated controls
[28] = 80 g/ha, effect in comparison to untreated controls

CCOC(=O)COc1nn(-c2ncccc2F)c(-c2ccc(F)nc2)c1C(F)(F)F [Example I-56]
Pre-emergence action against ALOMY ([1]; 80 g/ha): 100% | Pre-emergence action against ALOMY ([1]; 320 g/ha): 100% | Pre-emergence action against AMARE in % ([2]; 80 g/ha): 100% | Pre-emergence action against AMARE in % ([2]; 320 g/ha): 100% | Pre-emergence action against AVEFA in % [3]: 100% | Pre-emergence action against DIGSA in % [4, 27]: 100% | Pre-emergence action against DIGSA in % ([4]; dosage 320 g/ha): 100% | Pre-emergence action against ECHCG in % ([5]; dosage 320 g/ha): 100% | Pre-emergence action against LOLRI in % ([6]; dosage 80 g/ha): 100% | Pre-emergence action against LOLRI in % ([6]; dosage 320 g/ha): 100% | Pre-emergence action against MATIN in % ([7]; dosage 320 g/ha): 100% | Pre-emergence action against PHBPU in % ([8]; dosage 320 g/ha): 90% | Pre-emergence action against POLCO in % ([9]; dosage 80 g/ha): 80% | Pre-emergence action against POLCO in % ([9]; dosage 320 g/ha): 90% | Pre-emergence action against SETVI in % ([10]; dosage 320 g/ha): 100% | Pre-emergence action against VERPE in % ([11]; dosage 320 g/ha): 100% | Pre-emergence action against VIOTR in % ([12]; 320 g/ha, Viola tricolor): 100% | Pre-emergence action against VIOTR in % ([12]; dosage 80 g/ha): 100% | Post-emergence action against ABUTH in % [13]: 80% | Post-emergence action against ALOMY in % [14]: 90% | Post-emergence action against AMARE in % [15]: 80% | Post-emergence action against AVEFA in % [16]: 80% | Post-emergence action against DIGSA in % ([17]; 80 g/ha): 90% | Post-emergence action against PHBPU in % ([18]; dosage 80 g/ha): 80% | Post-emergence action against POLCO in % [19]: 80% | Post-emergence action against VERPE in % ([20]; dosage 80 g/ha): 80% | Post-emergence action against VIOTR in % ([21]; 80 g/ha): 80% | Post-emergence action against ORYSA in % ([22]; 20 g/ha, effect vs untreated controls): 0% | Post-emergence action against ORYSA in % [22, 28]: 0% | Post-emergence action against ZEAMX in % (crop plant compatibility) ([23]; 20 g/ha, ZEAMX, effect in comparison to untreated controls): 0% | Post-emergence action against ZEAMX in % ([23]; crop plant compatibility, 80 g/ha, effect vs untreated controls): 0%

O=C(O)COc1nn(-c2nc(F)ccc2F)c(-c2cncc(F)c2)c1Cl [Example I-231]
Pre-emergence action against ALOMY ([1]; 320 g/ha): 90% | Pre-emergence action against AMARE in % ([2]; 320 g/ha): 90% | Pre-emergence action against AVEFA in % [3]: 90% | Pre-emergence action against DIGSA in % [4, 27]: 90% | Pre-emergence action against DIGSA in % ([4]; dosage 320 g/ha): 100% | Pre-emergence action against ECHCG in % ([5]; dosage 80 g/ha): 90% | Pre-emergence action against ECHCG in % ([5]; dosage 320 g/ha): 90% | Pre-emergence action against LOLRI in % ([6]; dosage 320 g/ha): 80% | Pre-emergence action against MATIN in % ([7]; dosage 80 g/ha): 90% | Pre-emergence action against MATIN in % ([7]; dosage 320 g/ha): 90% | Pre-emergence action against PHBPU in % ([8]; dosage 80 g/ha): 90% | Pre-emergence action against PHBPU in % ([8]; dosage 320 g/ha): 90% | Pre-emergence action against SETVI in % ([10]; dosage 80 g/ha): 90% | Pre-emergence action against SETVI in % ([10]; dosage 320 g/ha): 90% | Pre-emergence action against VERPE in % ([11]; dosage 80 g/ha): 80% | Pre-emergence action against VERPE in % ([11]; dosage 320 g/ha): 80% | Pre-emergence action against VIOTR in % ([12]; 320 g/ha, Viola tricolor): 100% | Pre-emergence action against VIOTR in % ([12]; dosage 80 g/ha): 100% | Post-emergence action against DIGSA in % ([17]; 320 g/ha): 90% | Post-emergence action against ECHCG in % ([24]; dosage 80 g/ha): 80% | Post-emergence action against ECHCG in % ([24]; dosage 320 g/ha): 90% | Post-emergence action against MATIN in % ([25]; dosage 80 g/ha): 80% | Post-emergence action against MATIN in % ([25]; dosage 320 g/ha): 80% | Post-emergence action against PHBPU in % ([18]; dosage 320 g/ha): 80% | Post-emergence action against SETVI in % [26]: 80% | Post-emergence action against VERPE in % ([20]; 320 g/ha, VERPE): 80% | Post-emergence action against VIOTR in % ([21]; 320 g/ha): 80% | Post-emergence action against ORYSA in % [22, 28]: 10%
